ChEMBL document CHEMBL5674860, “Optimized Dual-Glo Assay to identify co-culture-induced drug vulnerabilities in 3D CRC models” (2024)

Key:
Format in all cases: functional, Homo sapiens
Parameters in all cases: dose or concentration left out as unconfirmed
Colon cancer organoid [1] = experiment: Optimized Dual-Glo assay to identify co-culture induced drug vulnerabilities using donated chemical probes and chemogenomics kinase set in O14 CRC organoid and F14 CAF mono and co-culture. […] Cell viability is reported both mono and co-culture models.
Colon cancer organoid [2] = experiment: Optimized Dual-Glo assay to identify co-culture induced drug vulnerabilities using donated chemical probes and chemogenomics kinase set in O06 CRC organoid and F06 CAF mono and co-culture. […] Cell viability is reported both mono and co-culture models.
Colon cancer organoid [3] = experiment: Optimized Dual-Glo assay to identify co-culture induced drug vulnerabilities using donated chemical probes and chemogenomics kinase set in O20 CRC organoid and F20 CAF mono and co-culture. […] Cell viability is reported both mono and co-culture models.
[4] = Culture type Co-Culture, Transduced with Lucferase2-P2A-EGFP lentivirus
[5] = Culture type Co-Culture, Transduced with Renilla-dsRed lentivirus
[6] = Culture type Mono-Culture, Transduced with Lucferase2-P2A-EGFP lentivirus
[7] = Culture type Mono-Culture, Transduced with Renilla-dsRed lentivirus

| Compound | Cell Viability (Colon cancer organoid [1]; [4]) [%] | Cell Viability (Colon cancer organoid [1]; [5]) [%] | Cell Viability (Colon cancer organoid [1]; [6]) [%] | Cell Viability (Colon cancer organoid [1]; [7]) [%] | Cell Viability (Colon cancer organoid [2]; [4]) [%] | Cell Viability (Colon cancer organoid [2]; [5]) [%] | Cell Viability (Colon cancer organoid [2]; [6]) [%] | Cell Viability (Colon cancer organoid [2]; [7]) [%] | Cell Viability (Colon cancer organoid [3]; [4]) [%] | Cell Viability (Colon cancer organoid [3]; [5]) [%] | Cell Viability (Colon cancer organoid [3]; [6]) [%] | Cell Viability (Colon cancer organoid [3]; [7]) [%] |
| --- | --- | --- | --- | --- | --- | --- | --- | --- | --- | --- | --- | --- |
| Clc1cc2c(NC3CCCC3)nnc(-c3ccncc3)c2cc1Cl | 74.2058 | 99.3707 | 72.2513 | 106.405 | 131.765 | 133.642 | 39.455 | 87.2375 | 149.301 | 128.6 | 80.485 | 77.3951 |
| CN(C)C(=O)c1ccc(-c2cc(C(=O)N(C)C3CCCC3)no2)cc1O | 78.738 | 108.435 | 99.3256 | 115.997 | 126.057 | 129.278 | 114.98 | 129.58 | 121.535 | 110.433 | 107.717 | 123.756 |
| CCCc1cc(C)[nH]c(=O)c1CNC(=O)c1cc(-c2ccc(N3CCN(C(C)C)CC3)nc2)cc2c1cnn2C(C)C | 66.7096 | 94.8471 | 83.1931 | 95.0739 | 81.1391 | 118.175 | 116.95 | 88.1686 | 58.7881 | 157.842 | 61.2858 | 75.3301 |
| CCc1cccc(CC)c1NC(=O)c1nn(C)c2c1CCc1cnc(Nc3ccc(C(=O)NC4CCN(C)CC4)cc3OC(F)(F)F)nc1-2 | 20.0347 | 229.301 | 20.3776 | 93.7404 | 8.756 | 150.393 | 5.577 | 91.0019 | 94.4005 | 107.437 | 25.0865 | 90.076 |
| CCN(C(=O)CO)[C@H]1CN(/C(=N\C#N)Nc2cccc(OC(F)F)c2)N=C1c1ccc(Cl)c(Cl)c1 | 96.421 | 116.48 | 90.9581 | 97.9735 | 100.328 | 102.729 | 73.2581 | 127.729 | 98.0443 | 141.776 | 125.834 | 95.5224 |
| OCCn1cc(-c2ccc3c(c2)CCC3=NO)c(-c2ccncc2)n1 | 155.629 | 130.506 | 186.115 | 118.266 | 81.3359 | 109.303 | 157.495 | 121.815 | 201.802 | 70.8995 | 81.9137 | 103.135 |
| FC(F)c1nc2ccccc2n1-c1nc(N2CCOCC2)nc(N2CCOCC2)n1 [ZSTK-474] | 66.4922 | 94.4439 | 94.5351 | 81.6405 | 29.4296 | 101.088 | 21.0208 | 93.8001 | 123.987 | 95.7276 | 79.3506 | 60.5776 |
| CCOC(=O)CCNc1cc(N2CCc3ccccc3CC2)nc(-c2ccccn2)n1 | 81.7654 | 97.685 | 98.6348 | 109.679 | 103.039 | 116.98 | 128.06 | 112.043 | 100.893 | 127.032 | 66.9069 | 85.0003 |
| N#Cc1cnc(Nc2cc(NC[C@H]3CNCCO3)c(C(F)(F)F)cn2)cn1 [SRA-737] | 41.9223 | 191.286 | 52.6101 | 101.86 | 89.9461 | 120.027 | 70.513 | 117.124 | 103.278 | 133.202 | 58.7772 | 96.135 |
| FC(F)(F)c1ccc2c(c1)nc(-c1cccnc1)n2C1CC1 [MSD-CYP11B2-Negative-control] | 79.1334 | 88.6801 | 68.2082 | 99.4361 | 103.115 | 83.1787 | 99.8949 | 100.759 | 98.8357 | 114.7 | 79.6989 | 74.5522 |
| O=C(O)c1ccc(-c2coc3ncc(-c4ccccc4)cc23)cc1Cl | 199.753 | 90.4064 | 200.801 | 87.3818 | 226.279 | 119.386 | 202.946 | 112.766 | 189.357 | 126.188 | 202.493 | 116.18 |
| O=C(O)c1ccc(-c2c[nH]c3ncc(-c4ccccc4)cc23)cc1C1CCCC1 [GSK-650394] | 84.2987 | 94.4983 | 153.467 | 103.115 | 150.298 | 125.274 | 142.061 | 114.363 | 93.9419 | 129.576 | 65.3151 | 121.845 |
| N#CC1(c2ccccn2)CCN(Cc2cc(C(=O)O)c(=O)n3ccccc23)CC1 [MSD-M1PAM] | 126.16 | 122.221 | 72.0486 | 98.779 | 12.088 | 188.309 | 35.5128 | 99.638 | 53.1969 | 117.537 | 81.9362 | 89.7444 |
| Cc1nc(-c2cn3c(n2)-c2ccc(-c4cnn(C(C)(C)C(N)=O)c4)cc2OCC3)n(C(C)C)n1 [TASELISIB] | 25.1108 | 133.934 | 29.7364 | 65.8836 | 42.3556 | 62.2904 | 29.0303 | 59.8749 | 15.8608 | 146.008 | 9.086 | 84.7341 |
| CN1CCN(c2ccc(OC(F)(F)F)c(Nc3ncc4c(n3)-c3c(c(C(N)=O)nn3CCO)CC4)c2)CC1 [ONVANSERTIB] | 3.512 | 162.986 | 6.811 | 81.4434 | 2.834 | 160.245 | 4.275 | 93.5315 | 2 | 184.086 | 2.415 | 100.341 |
| COc1cc(OC)cc(-c2noc(N3CCN(C)C4(CCN(c5ccccc5)CC4)C3)n2)c1 | 94.7889 | 110.973 | 95.4006 | 91.5093 | 67.7845 | 115.277 | 89.2845 | 104.733 | 90.0996 | 110.491 | 105.262 | 93.4153 |
| O=C(NC[C@@H]1[C@H]2CN(C(=O)OCc3cc(C(F)(F)F)cc(C(F)(F)F)c3)C[C@@H]12)c1ccc2[nH]nnc2c1 [BI 2545] | 75.1961 | 105.32 | 137.829 | 80.7794 | 124.688 | 144.467 | 99.0945 | 89.0013 | 135.058 | 115.933 | 103.58 | 122.062 |
| CC(=O)C1=C(C)N(c2cccc(C(F)(F)F)c2)C(=O)N[C@H]1c1ccc(C#N)nc1 [BAY-677] | 86.1981 | 131.912 | 107.006 | 91.8517 | 113.366 | 134.225 | 107.227 | 105.031 | 134.265 | 107.791 | 113.459 | 115.06 |
